This passage reports IC50 results from PubChem BioAssay AID624395 (The Scripps Research Institute Molecular Screening Center, 2012).

By IC50 is commonly meant the midpoint of a concentration-inhibition curve.

Activity calls are given as the source filed them. The rule behind the calls is not given here.

For the experiment, the system named is cell-based VP16 transactivation luciferase luminescence. In words: compounds lowering VP16-driven reporter luminescence – cell-based, counter-screen for NR2E3 agonist project, dose response (AID 624395). A general note: The purpose of a counterscreen is to sort out artefacts and off-target activity.
As to `N=C1SCC(=O)N1c1ncc(Cc2cccc(Cl)c2)s1`, the IC50 is 4.78 µM.
For `Cc1cccc(/C=N/Nc2cc(N3CCOCC3)nc(N3CCOCC3)n2)c1` the value was 5.91 µM.
As for `Cc1cccc(OCCCC(=O)Nc2nc3ccccc3[nH]2)c1`, the IC50 was > 39.8 µM (inactive).
For `CC(C)N1CCc2c(sc(NC(=O)c3ccc([N+](=O)[O-])o3)c2C(N)=O)C1` the value was 3.05 µM; for `CCN(CC)S(=O)(=O)c1ccc(NC(=O)Nc2cccc(C(F)(F)F)c2)cc1`, 7.08 µM; for `COCCn1c(C)cc(C(=O)COc2ccc(C)nc2[N+](=O)[O-])c1C`, 1.46 µM.
For `Oc1[nH]c2ccccc2c1N=NC(=S)N1CCOCC1` the value was > 39.9 µM (inactive).
The result for `Nc1nc(-c2ccccn2)nc(N)c1Cc1ccc(Cl)cc1Cl` reads 4.59 µM; that for `O=C(c1cc(S(=O)(=O)N2CCN(c3ccccc3)CC2)ccc1Cl)N1CCCCCCC1`, 2.51 µM; that for `c1coc(CNc2ncnc3ccccc23)c1`, 4.45 µM.
Take `CCC1(C)Cc2c(sc3[nH]c(=S)n(Cc4ccccc4)c(=O)c23)CO1` (centres undefined): the IC50 is 12.1 µM (inactive).
Turning to `CC(C)(C)NCC(=Cc1ccccc1)C(=O)c1ccccc1`, the IC50 was 7.33 µM.
As to `O=C(COC(=O)c1cc([N+](=O)[O-])ccc1N1CCOCC1)Nc1ccc(Cl)cn1`, the IC50 is 31.8 µM (inactive).
Consider `COc1ccc(NC(=O)/C(Cl)=C(/Cl)S(=O)(=O)Cc2ccccc2)cn1`, for which the IC50 is 5.13 µM.
For `Cc1ccc(C#N)c(SCc2nnc(-c3ccc(Cl)cc3)o2)n1` the value was 0.0132 µM.
For `O=NN(CC(=O)NNc1ccccc1)CC(=O)NNc1ccccc1` the value was 23.2 µM (inactive); for `Cc1cc(C)cc(NC(=O)CCc2nc3sc4c(c3c(=O)[nH]2)CCCC4)c1`, > 39.8 µM (inactive); for `CCOP(=O)(CCP(=O)(OCC)OCC)OCC.C[CH2][Sn]([Cl])([Cl])[CH2]C`, 10.9 µM (inactive).
For `Cc1cnc(NC(=O)CCCc2nc3ccccc3s2)s1` the value was 5.07 µM.
